Assay type in all cases: cell-based
In assay [1] the target is T1, human prostanoid IP receptor (Homo sapiens, UniProt P43119).
T1 construct: expressed in transfected cells
As to the kind of experiment: FLIPR Ca2+ signaling PG antagonist assay, IP stable cell line. To be noted: HEK-293 EBNA cells, human recombinant IP, no exogenous G-protein; standard agonist Cicaprost. The method in brief:
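HEK-293 EBNA stable lines; EP2 co-expressed with chimeric Gqs, EP1/IP/TP with no exogenous G protein. Fluo-4AM-loaded cells pretreated 4.5 min at 37 °C with compound (0.1–30 μM; TP 0.067–1 μM), then standard agonist (PGE2, cicaprost, U-46619) 10^−11–10^−5 M (TP 10^−12–10^−6 M); peak fluorescence read 3.5 min, nonlinear regression.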

Assay [2] concerns the target T2, human prostanoid FP receptor (Homo sapiens, UniProt P43088).
T2 construct: expressed in transfected cells
As to the kind of experiment: FLIPR Ca2+ signaling PG antagonist assay, FP stable cell line. To be noted: HEK-293 EBNA cells, human recombinant FP, no exogenous G-protein; standard agonist 17-phenyl-PGF2α. An outline of the steps:
(§1)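 Stable HEK-293 EBNA lines (DP1 with chimeric Gqs, EP3 with Gqi, EP1 and FP without exogenous G protein) were Fluo-4AM-loaded and pretreated 4.5 min at 37 °C with compound (0.1–30 μM). Agonist (BW 245C for DP1, PGE2 for EP1/EP3, 17-phenyl-PGF2α for FP) was then added at 10^−11–10^−5 M. Peak Ca2+ fluorescence was taken relative to agonist at 10^−6 M.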

Assay [3] addresses T3, human prostanoid EP3 receptor (Homo sapiens, UniProt P43115).
T3 construct: expressed in transfected cells
T3 sequence (P43115 1-390): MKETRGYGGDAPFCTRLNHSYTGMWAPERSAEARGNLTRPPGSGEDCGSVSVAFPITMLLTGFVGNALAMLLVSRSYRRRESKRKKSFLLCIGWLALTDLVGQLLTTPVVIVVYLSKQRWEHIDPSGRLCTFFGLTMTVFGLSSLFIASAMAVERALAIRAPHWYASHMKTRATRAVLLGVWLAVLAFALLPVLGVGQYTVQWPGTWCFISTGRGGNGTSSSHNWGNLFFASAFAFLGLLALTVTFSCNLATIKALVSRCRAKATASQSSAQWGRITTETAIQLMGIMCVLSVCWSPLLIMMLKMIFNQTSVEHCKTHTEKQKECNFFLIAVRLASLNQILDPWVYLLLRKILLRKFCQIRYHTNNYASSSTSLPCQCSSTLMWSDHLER
As to the kind of experiment: FLIPR Ca2+ signaling PG antagonist assay, EP3 stable cell line. The settings on record: HEK-293 EBNA cells, human recombinant EP3 with chimeric Gqi; standard agonist PGE2. An outline of the steps: as §1

Assay [4] has as its target T4, human prostanoid EP4 receptor (Homo sapiens, UniProt P35408).
T4 construct: expressed in transfected cells
In words: FLIPR Ca2+ signaling PG antagonist assay, EP4 stable cell line. To be noted: HEK-293 EBNA cells, human recombinant EP4 with chimeric Gqs; standard agonist PGE2. The method in brief:
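Antagonism at human EP4 was assessed as a Ca^2+ signal in stable HEK-293 EBNA transfectants carrying chimeric Gqs. Dye-loaded cells in HBSS-HEPES at 37° C received test compound, then a 7-point 10-fold PGE2 series. Fluorescence was excited at 470-495 nm and read at 515-575 nm for 3.5 minutes, with each condition run in triplicate and buffer used as the negative control.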

The target in assay [5] is T5, human prostanoid DP1 receptor (Homo sapiens, UniProt Q13258).
T5 construct: expressed in transfected cells
T5 sequence (Q13258 1-359): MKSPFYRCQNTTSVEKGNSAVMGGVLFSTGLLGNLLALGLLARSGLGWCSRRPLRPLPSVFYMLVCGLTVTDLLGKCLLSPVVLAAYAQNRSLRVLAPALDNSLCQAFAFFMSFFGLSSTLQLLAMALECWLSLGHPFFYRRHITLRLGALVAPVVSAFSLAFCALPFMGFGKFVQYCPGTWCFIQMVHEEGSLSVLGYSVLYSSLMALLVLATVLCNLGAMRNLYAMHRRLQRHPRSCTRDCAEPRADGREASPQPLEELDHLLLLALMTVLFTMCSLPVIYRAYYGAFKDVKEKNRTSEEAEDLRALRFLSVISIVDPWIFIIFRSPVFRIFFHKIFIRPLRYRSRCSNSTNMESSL
As to the kind of experiment: FLIPR Ca2+ signaling PG antagonist assay, DP1 stable cell line. The settings on record: HEK-293 EBNA cells, human recombinant DP1 with chimeric Gqs; standard agonist BW 245C; read-out: DP (Kb, PG antagonist activity). An outline of the steps: as §1

T1 sequence (P43119 whole entry): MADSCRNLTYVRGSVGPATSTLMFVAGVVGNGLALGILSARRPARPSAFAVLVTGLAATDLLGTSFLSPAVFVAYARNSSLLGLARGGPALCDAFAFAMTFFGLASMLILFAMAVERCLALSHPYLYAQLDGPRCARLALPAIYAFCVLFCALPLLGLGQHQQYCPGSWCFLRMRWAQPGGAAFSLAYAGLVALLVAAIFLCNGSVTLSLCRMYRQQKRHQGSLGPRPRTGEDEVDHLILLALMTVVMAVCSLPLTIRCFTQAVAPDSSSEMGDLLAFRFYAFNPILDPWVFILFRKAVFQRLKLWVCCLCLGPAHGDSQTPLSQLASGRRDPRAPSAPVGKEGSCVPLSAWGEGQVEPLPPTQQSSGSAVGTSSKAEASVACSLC
T4 sequence (P35408 whole entry): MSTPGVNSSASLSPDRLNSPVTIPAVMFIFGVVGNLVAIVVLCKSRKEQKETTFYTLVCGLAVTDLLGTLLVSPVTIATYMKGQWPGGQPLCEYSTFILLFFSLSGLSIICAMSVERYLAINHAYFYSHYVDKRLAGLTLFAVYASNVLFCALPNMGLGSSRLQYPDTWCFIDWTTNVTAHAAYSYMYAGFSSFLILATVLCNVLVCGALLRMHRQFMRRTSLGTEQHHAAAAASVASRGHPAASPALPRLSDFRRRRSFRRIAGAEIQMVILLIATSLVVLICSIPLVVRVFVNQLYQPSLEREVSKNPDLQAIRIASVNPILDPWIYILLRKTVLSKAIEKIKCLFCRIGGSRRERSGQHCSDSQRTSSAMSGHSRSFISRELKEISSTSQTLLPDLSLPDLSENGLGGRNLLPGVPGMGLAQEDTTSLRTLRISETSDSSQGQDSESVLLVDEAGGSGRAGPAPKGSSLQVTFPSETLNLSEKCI
T2 sequence (P43088 whole entry): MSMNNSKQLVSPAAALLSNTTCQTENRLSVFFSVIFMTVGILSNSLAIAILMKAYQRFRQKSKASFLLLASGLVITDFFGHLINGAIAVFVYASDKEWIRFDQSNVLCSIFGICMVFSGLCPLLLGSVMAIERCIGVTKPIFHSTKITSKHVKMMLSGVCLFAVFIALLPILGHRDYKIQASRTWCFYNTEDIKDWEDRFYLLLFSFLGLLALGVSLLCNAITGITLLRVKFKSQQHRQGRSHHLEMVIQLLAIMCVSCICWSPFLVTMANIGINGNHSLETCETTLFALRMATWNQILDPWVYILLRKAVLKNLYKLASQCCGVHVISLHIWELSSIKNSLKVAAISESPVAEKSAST

For orientation: Kb means the affinity of an antagonist, worked out from how it opposes an agonist. With `CCC(CC)COc1ccc(Cl)cc1Cn1nc(C)c2cc(C(=O)O)cnc21` [Example 60, 1-[5-Chloro-2-(2-Ethyl-Butoxy)-Benzyl]-3-Methyl-1H-Pyrazolo[3,4-B]Pyridine-5-Carboxylic Acid], the antagonist equilibrium constant (Kb) was determined as 630 nM in assay [1]; 2500 nM in assay [2]; 5100 nM in assay [3]; 150 nM in assay [4]; 580 nM in assay [5].
For `Cc1nn(Cc2cc(Cl)ccc2OCC(C)C)c2ncc(C(=O)O)cc12` [Example 61, 1-(5-Chloro-2-Isobutoxy-Benzyl)-3-Methyl-1H-Pyrazolo[3,4-B]Pyridine-5-Carboxylic Acid], in that order: 1750 nM, 1500 nM, no less than 10000 nM, 760 nM and 740 nM.
As for `CCC(CC)COc1ccc(Cl)cc1Cn1ncc2cc(C(N)=O)ncc21` [Example 62, 1-[5-Chloro-2-(2-Ethyl-Butoxy)-Benzyl]-1H-Pyrazolo[3,4-C]Pyridine-5-Carboxylic Acid Amide], the Kb in assay [1] was no less than 10000 nM; in assay [2], no less than 10000 nM; in assay [3], no less than 10000 nM; in assay [4], no less than 10000 nM; in assay [5], 5800 nM.
With `CCC(CC)COc1ccc(Cl)cc1Cn1ncc2cc(C(=O)O)ncc21` [Example 63, 1-[5-Chloro-2-(2-Ethyl-Butoxy)-Benzyl]-1H-Pyrazolo[3,4-C]Pyridine-5-Carboxylic Acid], the Kb in assay [1] was 5000 nM; in assay [2] it was 2400 nM; in assay [3], 7400 nM; in assay [4], 2500 nM; in assay [5] it was no less than 10000 nM.
Consider `CCc1nn(Cc2cc(Br)ccc2OCC(C)C)c2ccc(C(=O)O)cc12` [Example 64, 1-(5-Bromo-2-Isobutoxy-Benzyl)-3-Ethyl-1H-Indazole-5-Carboxylic Acid], for which the Kb in assay [1] was determined as 700 nM; in assay [2], 190 nM; in assay [3], 2900 nM; in assay [4], 50 nM; in assay [5] it was 260 nM.
For the compound `CCc1nn(Cc2cc(Br)ccc2OCC(CC)CC)c2ccc(C(=O)O)cc12` [Example 65, 1-[5-Bromo-2-(2-Ethyl-Butoxy)-Benzyl]-3-Ethyl-1H-Indazole-5-Carboxylic Acid], the Kb came out at 880 nM in assay [1], 4700 nM in assay [3], 55 nM in assay [4] and 1500 nM in assay [5]. In addition, in assay [2], the “FP (Kb, PG antagonist activity)” value is “PAg”.
Take `Cc1cc2cc(C(=O)O)ccc2n1Cc1cc(Br)ccc1OCC(C)C` [Example 66, 1-(5-Bromo-2-Isobutoxy-Benzyl)-2-Methyl-1H-Indole-5-Carboxylic Acid]: the Kb in assay [1] was 4600 nM; in assay [2] it was 23 nM; in assay [3] it was no less than 10000 nM; in assay [4] it was 1400 nM; in assay [5] it was no less than 10000 nM.
Turning to `CC(C)COc1ccc(Br)cc1Cn1ccc2cc(C(=O)O)ccc21` [Example 67, 1-(5-Bromo-2-Isobutoxy-Benzyl)-1H-Indole-5-Carboxylic Acid], the Kb in assay [1] is no less than 10000 nM; in assay [2], 100 nM; in assay [3] it was no less than 10000 nM; in assay [4], 340 nM; in assay [5], no less than 10000 nM.
`CCC(CC)COc1ccc(Br)cc1Cn1c(C)cc2cc(C(=O)O)ccc21` [Example 68, 1-[5-Bromo-2-(2-Ethyl-Butoxy)-Benzyl]-2-Methyl-1H-Indole-5-Carboxylic Acid]: the Kb in assay [1] was 6600 nM; in assay [2] it was no less than 10000 nM; in assay [3], no less than 10000 nM; in assay [4], 9700 nM; in assay [5] it was no less than 10000 nM.
On to `CCC(CC)COc1ccc(Br)cc1Cn1ccc2cc(C(=O)O)ccc21` [Example 69, 1-[5-Bromo-2-(2-Ethyl-Butoxy)-Benzyl]-1H-Indole-5-Carboxylic Acid], for which the Kb in assay [1] was determined as 3000 nM; in assay [2], 800 nM; in assay [3] it was 7900 nM; in assay [4], 130 nM; in assay [5], 3700 nM.
For `CCC(CC)COc1ccc(Br)cc1Cn1ccc2ccc(C(=O)O)cc21` [Example 70, 1-[5-Bromo-2-(2-Ethyl-Butoxy)-Benzyl]-1H-Indole-6-Carboxylic Acid], the Kb is no less than 10000 nM in assay [1]; no less than 10000 nM in assay [2]; no less than 10000 nM in assay [3]; 6000 nM in assay [4]; 2200 nM in assay [5].
With `CC(C)COc1ccc(OC(F)(F)F)cc1Cn1ccc2cc(C(=O)O)ccc21` [Example 71, 1-(2-Isobutoxy-5-Trifluoromethoxy-Benzyl)-1H-Indole-5-Carboxylic Acid], the Kb was no less than 10000 nM in assay [1]; 120 nM in assay [2]; no less than 10000 nM in assay [3]; 280 nM in assay [4]; no less than 10000 nM in assay [5].
With `CC(C)COc1ccc(Br)cc1Cn1ccc2cc(C(=O)O)cnc21` [Example 72, 1-(5-Bromo-2-Isobutoxy-Benzyl)-1H-Pyrrolo[2,3-B]Pyridine-5-Carboxylic Acid], the Kb in assay [1] was 2000 nM; in assay [2] it was 25 nM; in assay [3], no less than 10000 nM; in assay [4], 220 nM; in assay [5] it was 1500 nM.
For `CC(C)COc1ccc(Br)cc1Cn1ccc2nc(C(=O)O)ccc21` [Example 73, 1-(5-Bromo-2-Isobutoxy-Benzyl)-1H-Pyrrolo[3,2-B]Pyridine-5-Carboxylic Acid], the Kb in assay [1] is 9000 nM; in assay [2] it was 430 nM; in assay [3] it was no less than 10000 nM; in assay [4], no less than 10000 nM; in assay [5], no less than 10000 nM.
As to `CC(C)COc1ccc(OC(F)(F)F)cc1Cn1ccc2cc(C(=O)O)cnc21` [Example 74, 1-(2-Isobutoxy-5-Trifluoromethoxy-Benzyl)-1H-Pyrrolo[2,3-B]Pyridine-5-Carboxylic Acid], the Kb came to 1400 nM in assay [1]; 660 nM in assay [2]; 2800 nM in assay [3]; 440 nM in assay [4]; 290 nM in assay [5].
In the case of `Cc1cn(Cc2cc(OC(F)(F)F)ccc2OCC(C)C)c2ccc(C(=O)O)cc12` [Example 75, 1-(2-Isobutoxy-5-Trifluoromethoxy-Benzyl)-3-Methyl-1H-Indole-5-Carboxylic Acid], the Kb was 4400 nM in assay [1]; 330 nM in assay [2]; no less than 10000 nM in assay [3]; 280 nM in assay [4]; 1300 nM in assay [5].
Take `CCC(CC)COc1ccc(OC(F)(F)F)cc1Cn1cc(C)c2cc(C(=O)O)ccc21` [Example 77, 1-[2-(2-Ethyl-Butoxy)-5-Trifluoromethoxy-Benzyl]-3-Methyl-1H-Indole-5-Carboxylic Acid]: the Kb in assay [1] was no less than 10000 nM; in assay [2], 9600 nM; in assay [3] it was no less than 10000 nM; in assay [4], 1500 nM; in assay [5] it was 3600 nM.
Regarding `CCC(CC)COc1ccc(Br)cc1Cn1cnc2cc(C(=O)O)ccc21` [Example 78, 1-[5-Bromo-2-(2-Ethyl-Butoxy)-Benzyl]-1H-Benzoimidazole-5-Carboxylic Acid], the Kb in assay [1] was 3000 nM; in assay [2], 800 nM; in assay [3], no less than 10000 nM; in assay [4], 35 nM; in assay [5] it was 3800 nM.
Regarding `CC(C)COc1ccc(Br)cc1Cn1cnc2cc(C(=O)O)ccc21` [Example 79, 1-(5-Bromo-2-Isobutoxy-Benzyl)-1H-Benzoimidazole-5-Carboxylic Acid], the Kb in assay [1] stood at 7000 nM; in assay [2], 80 nM; in assay [3] it was 8700 nM; in assay [4] it was 80 nM; in assay [5], 2000 nM.

The record behind these values is patent publication US10988474B2, “Compounds acting at multiple prostaglandin receptors giving a general anti-inflammatory response” (ALLERGAN, INC., priority 2011, dated 2021).
